The values below come from patent EP2233566A1, “Generation of pancreatic progenitor cells” (Vrije Universiteit Brussel, priority 2009, dated 2010).

In the assay the test system is human embryonic stem cells-derived definitive endoderm. In words: Hepatic differentiation (AFP / albumin expression) of hES cell-derived definitive endoderm. The assay is classed as cell-based. The method, then:
Cells were split in 4-well plates and differentiation performed in five stages as previously published (D'Amour et al. 2006 (supra); Table 2). Briefly, for DE induction 80% confluent cultures were washed with PBS and treated with 100 ng/ml Activin-A (RnD Systems) and 25 ng/ml Wnt3a (RnD Systems) for 24h in RPMI (Invitrogen) supplemented with antibiotics and Glutamax; then they were further treated with 100 ng/ml Activin-A in RPMI containing 0.2% FBS (PAA Laboratories) for 48h. PGT stage cells were treated with 50 ng/ml FGF10 (RnD Systems), 250 nM KAAD-Cyclopamine (Calbiochem) and 2% FBS in RPMI medium for 3 or 4 days. In the PFG stage (3-4 days), the medium was changed to DMEM supplemented with Glutamax, antibiotics, 1% B27 (Invitrogen), 2 µM retinoic acid (RA, Sigma), FGF10 and KAAD-Cyclopamine. […]
At each stage, cultures were washed with PBS, fixed for 10-15 min at room temperature in 4% formaldehyde and rinsed several times. […] Immunocytochemistry was performed for the detection of Hnf1B using a donkey horse radish peroxidase (HRP)-conjugated secondary antibody and detected by the ABC complex (Dako) as previously described in Mfopou et al. 2007 (Stem Cells 25: 1156-1165). […]

`Cc1c[nH]c(/C=C2\C(=O)Nc3ccccc32)c1CCC(=O)O` [SU5402]: the “albumin expression by the pancreas endoderm stage” value (SU5402 (250 nM) alone) is “attenuates albumin expression”. Further, the reduced hepatic differentiation entry (SU5402 added in PGT and PFG stages (FGF signalling inhibition)) is given as “at least 50%”.
